Reference: patent US9782368B2, “Use of N,N-bis-2-mercaptoethyl isophthalamide” (EMERAMED LIMITED, priority 2014, dated 2017)

Assays:
[1] = system: IL-6 and IL-8 secretion in BEAS-2B cells; test: Particle-induced secretion of pro-inflammatory cytokines (ELISA) in BEAS-2B cells; type: cell-based
Protocol: Secretion of the pro-inflammatory cytokines interleukin (IL)-6, IL-8 (as well as GM-CSF and MCP-1) into cell media in response to particle exposure was measured in A549 and BEAS-2B cells using the following method.
Lung epithelial cells were seeded at 5×10^4 in 24-well plates. After pre-incubation with NBMI, the anti-oxidant compound, N-acetyl-L-cysteine (NAC), which was used as a positive control, or vehicle, for 3 hours the medium was removed.
Fresh media containing various particles (as below) in different concentrations was in a total volume of 0.5 ml for an additional 24 hours. The supernatants were then separated from the cells by centrifugation.
IL-8, IL-6, GM-CSF and MCP-1 were measured in the cell free fluid using the DuoSet ELISA Development kit (R&D Systems, Abingdon, UK) according to manufacturer's protocol.
Exposure to medium only served as negative control. Each experiment was performed twice with 4 replicates.
The effect of pre-incubation with 50 μM NBMI on particle-induced cytokine formation was tested at various concentrations of relevant particles.

[2] = Ascorbate depletion assay, 9,10-PQ-sponsored oxidation, recycling of DHA; details: 9,10-PQ model, 200 μM added at 60 minutes
Protocol: The kinetics of ascorbate oxidation, sponsored by both 1 μM 9,10-PQ and 2 μM copper sulphate (CuSO4), was examined using the ascorbate depletion assay (Kelly et al, Res. Rep. Health Eff. Inst., 163, 3 (2011). 9,10-PQ was employed so that the action of NBMI could be examined in isolation of its chelation properties.
All experiments were performed in triplicate in UV 96 well flat-bottomed plates (Greiner bio-one) at a final volume of 200 μL. Exposures were initiated by the addition of 20 μL of a concentrated stock of ascorbate (2 mM) into each well containing 160 μL of Chelex-100 resin treated water (containing 10% DMSO), plus either 10 μL of water, CuSO4 stock solution at 4 mM or 9,10-PQ stock solution at 2 mM, and 10 μL of NMBI (4 mM and […]).
All solutions were prepared in Chelex-100 resin treated water (containing 10% DMSO). This yielded final concentrations in the wells of […], 2 μM CuSO4, or 1 μM 9,10-PQ and between 10 and 200 μM of NBMI.
Immediately prior to the addition of the ascorbate to each assay well, the plate was pre-incubated for 10 minutes at 37° C. in a plate reader (Spectra Max 190). During the exposure, the plate was maintained at this temperature. After addition of ascorbate, the concentration remaining in each well was monitored every 2 minutes for a period of two hours by measuring the absorbance at 265 nm. The ascorbate concentration was determined with reference to a standard curve, with the rate of ascorbate oxidation determined by performing a linear regression through the initial part of a concentration verses time plot using Microcal Software Limited's OriginLab (version 5.0). This was performed for each of the triplicates and the rate of ascorbate depletion was finally expressed as mean mol s 1×10^−9 depletion of ascorbate±standard deviation.
For the experiments in which the impact of adding NBMI to the ascorbate was measured, CuSO4 and 9,10-PQ depletion assays were examined later in the time course. The plates were ran with 190 μL only for the first 55-60 minutes, after which they were removed from the plate reader and 10 μL of either the NMBI or the known reducing agent, DTT stock solution, or water was added to each well. The plate was then returned to the plate reader and the absorbance at 265 nm monitored for a further 60 minutes.
The immediate increase in the measured ascorbate concentrations was determined and is referred to as the ‘jump’, as a measure of immediate recycling capacity. The sustained ‘increase’ over the remaining 60 minutes of the incubation was also determined.

[3] = TiO2 P25 100 μg/cm^2, pre-incubation 50 μM NBMI

SMILES: O=C(NCCS)c1cccc(C(=O)NCCS)c1 [NBMI, N,N-bis-2-mercaptoethyl isophthalamide]
- reduction of secretion of IL-6 [1, 3]: 37%
- reduction of secretion of IL-8 [1, 3]: 49%
- reduction of secretion of IL-6 ([1]; Urban Dust 100 μg/cm^2, pre-incubation 50 μM NBMI): 47%
- immediate rebound increase in ascorbate [2]: 42.8 µM
- rate of ascorbate oxidation after addition [2]: reduced relative to the first 60 minute period
